Assay type in all cases: cell-based
Data set [1] deals with human pulmonary microvascular endothelial cells (HMVECs). Nature of the data set: Determination of viability for cell culture experiments (LDH activity, CytoTox96 assay) during simulated IRI. The following applies: controls vs treated groups, all time points of simulated IRI. On the procedure:
In separate experiments performed in triplicate, HMVECs grown to confluence on P35 dishes underwent simulated IRI. At the same time points, cells and cell culture media or Ringer's lactate were assessed for lactate dehydrogenase (LDH) activity using the CytoTox96 Non-Radioactive Cytotoxicity Assay (Promega, Madison, Wis., United States of America) following the manufacturer's instructions. Control samples were also taken at time zero and 24 hours to assess cell viability apart from the experimental model. Culture medium and Ringer's lactate were used as background controls to normalize the absorbance value from the other samples. Cytotoxicity was calculated as media LDH activity divided by total LDH activity (cell pellet plus media). Viability was the inverse and expressed as percent viability at each time point.

The test system is the same in data set [2]. Nature of the data set: Simulated cold IRI: cold ischemia in 4° C. PERFADEX, gaps in monolayer. The settings on record: CRX-526 pre-incubation; 4 hours of cold ischemia in 4° C. PERFADEX; FIG. 2A, 2B. On the procedure: FIG. 2A is a series of photographs of (from left to right) human pulmonary microvascular endothelial cells (HMVECs) in warm (37° C.) cell culture media (Control), of HMVECs after four hours of cold ischemia (CI) in 4° C. cell culture media (Media 4 hr CI), of HMVECs after four hours of cold ischemia in 4° C. PERFADEX™ (Vitrolife, Kungsbacka, Sweden) pulmonary preservation solution (Vehicle 4 hr CI), and of HMVECs that had been pre-incubated with CRX-526 and undergone four hours of cold ischemia in 4° C. PERFADEX™ (Vitrolife, Kungsbacka, Sweden) with CRX-526 (CRX-526 4 hr CI). The photographs are representative of 9 images taken for each set of conditions.
FIG. 2B is a graph of the % area of gaps in the monolayer of human pulmonary microvascular endothelial cells (HMVECs) in cell culture media (Media), vehicle (i.e., PERFADEX™ (Vitrolife, Kungsbacka, Sweden)) or in vehicle after a 1 hour pre-treatment with CRX-526 and following either four hours of cold ischemia (4 hr CI), 1 hour of warm ischemia (WI), or following 1 hour of warm ischemia and 15 min, 1 hr, or 4 hr of reperfusion (15 min rep, 1 hr rep, and 4 hr rep, respectively). Data for the HMVECs in cell culture media without vehicle is shown in the open bars. […] The % gap area was quantified by MetaMorph® software (MDS Analytical Technologies, Inc., Sunnyvale, Calif., United States of America). *=p<0.01. […]

Data set [3] has the same test system. The experiment in a line: Cell culture model of warm lung IRI: simulated warm ischemia and reperfusion, phalloidin staining and image analysis. The following applies: 1 μg/mL CRX-526 vs vehicle. How it is done: An in vitro normothermic (37° C.) model of IRI employing nutrient depletion in 100% oxygen to model ischemia was developed, with reperfusion modeled by supplying fresh medium to culture dishes in sealed PLEXIGLAS® containers. Human pulmonary microvascular endothelial cells (HMVECs) (Cambrex Bio Science, Walkersville, Md., United States of America) maintained in CLONETICS® EGM-2MV BULLETKITS® (Cambrex Bio Science, Walkersville, Md., United States of America), at 37° C. in a humidified incubator in 5% CO2 were seeded at 2000 cells/cm^2 on collagen-coated 30 mm diameter glass bottom dish coverslips (Mattek Corp., Ashland, Mass., United States of America) and grown until 100% confluent. Sealed PLEXIGLAS® containers housing culture dishes at 37° C. were ventilated with 95% O2/5% CO2. To model warm ischemia (WI), cell medium was suddenly replaced with 2 mL nutrient-depleted, pyrogen-free clinical grade Ringer's lactate. Dishes were pre-treated with 1 μg/mL CRX-526 (GlaxoSmithKline, Duluth, Minn., United States of America) or vehicle (2% glycerin), one hour before WI. CRX-526 or vehicle was added whenever medium was changed. After 1 hour of simulated WI, Ringer's lactate was replaced with EGM2-MV pyrogen-free medium to simulate reperfusion, ventilating the chamber with 5% CO2 in room air. Dishes were removed in triplicate during WI and reperfusion, and immediately fixed in 4% paraformaldehyde for phalloidin staining. Cells with inhibitor or vehicle maintained in EGM2-MV medium at 37° C. in humidified 5% CO2 incubator served as controls. Culture medium was changed at the same time that medium was changed in experimental dishes. Probes inserted through sealed ports continuously recorded temperature, and pH in a representative dish in the PLEXIGLAS® box using voltmeters with data output recorded by PicoRecorded software (Pico Technology, St. Neots, United Kingdom).
HMVECs were fixed in 4% paraformaldehyde for 10 minutes at room temperature and washed 3 times with PBS. Cells were incubated for 1 hour with a 1/100 dilution of ALEXAFLOR® 568 phalloidin (Invitrogen, Carlsbad, Calif., United States of America) in PBS with 1% BSA and 0.05% Tween-20. Coverslips stained for F-actin were immediately examined with a Leica DMIRB Inverted Fluorescence/DIC microscope (Leica Microsystems, Inc., Bannockburn, Ill., United States of America) at 20× and 40× magnification to evaluate changes in cell shape and F-actin cytoskeleton. For each dish, three pictures were taken of contiguous fields near the center of the dish at 40× with a Kodak (Rochester, N.Y., United States of America) digital camera at the same exposure time. A masked observer assessed actin stress fiber pattern of each cell as normal or abnormal. Quantitative analysis of gap area was performed using METAMORPH® software (MDS Analytical Technologies, Inc., Sunnyvale, Calif., United States of America).
As described in Example 1, HMVECs grown to confluence on P30 dishes with integral cover slips were incubated with 1 μg/mL CRX-526 or vehicle, ventilated with 95% O2/5% CO2. Media was replaced with warm (37° C.)
Ringer's lactate and ventilated with 100% O2 to simulate warm ischemia. One hour later, Ringer's lactate was replaced with warm cell culture media, and chambers were ventilated with 95% room air/5% CO2 to simulate reperfusion. […]

The source of these data is patent publication US8809303B2, “Methods of regulating actin cytoskeletal rearrangement and intercellular gap formation” (The University of North Carolina at Chapel Hill, priority 2008, dated 2014).

SMILES strings stand for the structures.

Consider `CCCCCCCCCCC[C@H](CC(=O)N[C@H]1[C@H](OC[C@H](NC(=O)C[C@@H](CCCCCCCCCCC)OC(=O)CCCCC)C(=O)O)O[C@H](CO)[C@@H](OP(=O)(O)O)[C@@H]1OC(=O)C[C@@H](CCCCCCCCCCC)OC(=O)CCCCC)OC(=O)CCCCC` [CRX-526], for which the “cell viability, quantified by LDH assay” value in data set [1] is reported as “equivalent”. The gaps in monolayer entry in data set [2] is “much less obvious”. The “peripheral orientation of actin” value in data set [3] (after 15 minutes simulated reperfusion, FIG. 1C) is listed as “significantly reduced”; in data set [3] (following 60 minutes of WI, FIG. 1C), “significantly reduced”. Besides, the “recovery of monolayer confluence” value in data set [3] (after simulated reperfusion, FIG. 1B) is given as “regained confluence more quickly”. In data set [3] (during simulated warm ischemia, FIG. 1B), the “area of monolayer gaps” value is “significantly reduced”. For the same molecule, in data set [3] (monolayers in simulated warm IRI, FIG. 1C), the “percentage of cells with altered actin cytoskeleton” value was “decreased”.
